Read-outs that look alike come from different tables or passages of the source.
Experiments:
Format in all cases: cell-based
[1] = system: A549/ATCC; test: NCI in vitro cytotoxicity (SRB, 48 h), Non-small cell lung panel; conditions: Homo sapiens, 48 h exposure
[2] = system: EKVX; test: as above; conditions: Homo sapiens, 48 h exposure
[3] = system: NCI-H226; test: as above; conditions: Homo sapiens, 48 h exposure
[4] = system: NCI-H522; test: as above; conditions: Homo sapiens, 48 h exposure
[5] = system: COLO 205; test: NCI in vitro cytotoxicity (SRB, 48 h), Colon panel; conditions: Homo sapiens; COLO 205, Colon; 48 h exposure
[6] = system: HCT-116; test: NCI in vitro cytotoxicity (SRB, 48 h), Colon panel; conditions: Homo sapiens
[7] = system: HCT-15; test: NCI in vitro cytotoxicity (SRB, 48 h), Colon panel; conditions: Homo sapiens; HCT-15, Colon; 48 h exposure
[8] = system: HT29; test: NCI in vitro cytotoxicity (SRB, 48 h), Colon panel; conditions: Homo sapiens, HT-29, 48 h exposure
[9] = system: KM12; test: NCI in vitro cytotoxicity (SRB, 48 h), Colon panel; conditions: Homo sapiens, 48 h exposure
[10] = system: SW-620; test: NCI in vitro cytotoxicity (SRB, 48 h), Colon panel; conditions: Homo sapiens; SW-620, Colon; 48 h exposure
[11] = system: SF-268; test: NCI in vitro cytotoxicity (SRB, 48 h), CNS panel; conditions: Homo sapiens; SF-268, CNS; 48 h exposure
[12] = system: SF-295; test: NCI in vitro cytotoxicity (SRB, 48 h), CNS panel; conditions: Homo sapiens; SF-295, CNS; 48 h exposure
[13] = system: U251; test: NCI in vitro cytotoxicity (SRB, 48 h), CNS panel; conditions: Homo sapiens, U-251, 48 h exposure
[14] = system: IGROV1; test: NCI in vitro cytotoxicity (SRB, 48 h), Ovarian panel; conditions: Homo sapiens, IGROV-1; IGROV1, Ovarian; 48 h exposure
[15] = system: OVCAR-3; test: as above; conditions: Homo sapiens; OVCAR-3, Ovarian; 48 h exposure
[16] = system: OVCAR-4; test: as above; conditions: Homo sapiens; OVCAR-4, Ovarian; 48 h exposure
[17] = system: OVCAR-5; test: as above; conditions: Homo sapiens; OVCAR-5, Ovarian; 48 h exposure
[18] = system: NCI/ADR-RES; test: as above; conditions: Homo sapiens, 48 h exposure
[19] = system: 786-0; test: NCI in vitro cytotoxicity (SRB, 48 h), Renal panel; conditions: Homo sapiens; 786-0, Renal; 48 h exposure
[20] = system: ACHN; test: NCI in vitro cytotoxicity (SRB, 48 h), Renal panel; conditions: Homo sapiens, 48 h exposure
[21] = system: CAKI-1; test: NCI in vitro cytotoxicity (SRB, 48 h), Renal panel; conditions: Homo sapiens; CAKI-1, Renal; 48 h exposure
[22] = system: RXF 393; test: NCI in vitro cytotoxicity (SRB, 48 h), Renal panel; conditions: Homo sapiens; RXF 393, Renal; 48 h exposure
[23] = system: SN12C; test: NCI in vitro cytotoxicity (SRB, 48 h), Renal panel; conditions: Homo sapiens, 48 h exposure
[24] = system: TK-10; test: NCI in vitro cytotoxicity (SRB, 48 h), Renal panel; conditions: Homo sapiens; TK-10, Renal; 48 h exposure
[25] = system: UO-31; test: NCI in vitro cytotoxicity (SRB, 48 h), Renal panel; conditions: Homo sapiens; UO-31, Renal; 48 h exposure
[26] = system: PC-3; test: NCI in vitro cytotoxicity (SRB, 48 h), Prostate panel; conditions: Homo sapiens; PC-3, Prostate; 48 h exposure
[27] = system: DU-145; test: as above; conditions: Homo sapiens; DU-145, Prostate; 48 h exposure
[28] = system: HS 578T; test: NCI in vitro cytotoxicity (SRB, 48 h), Breast panel; conditions: Homo sapiens, 48 h exposure
[29] = system: MDA-MB-468; test: as above; conditions: Homo sapiens; MDA-MB-468, Breast; 48 h exposure
[30] = system: LOX IMVI; test: NCI in vitro cytotoxicity (SRB, 48 h), Melanoma panel; conditions: Homo sapiens, 48 h exposure
[31] = system: MALME-3M; test: as above; conditions: Homo sapiens, 48 h exposure
[32] = system: M14; test: as above; conditions: Homo sapiens, 48 h exposure
[33] = system: MDAMB-435; test: as above; conditions: Homo sapiens, MDA-MB-435; MDAMB-435, Melanoma; 48 h exposure
[34] = system: SK-MEL-28; test: as above; conditions: Homo sapiens; SK-MEL-28, Melanoma; 48 h exposure
[35] = system: SK-MEL-5; test: as above; conditions: Homo sapiens; SK-MEL-5, Melanoma; 48 h exposure
[36] = system: UACC-62; test: as above; conditions: Homo sapiens; UACC-62, Melanoma; 48 h exposure
[37] = system: UACC-25; test: as above; conditions: Homo sapiens; UACC-25, Melanoma; 48 h exposure
[38] = system: Colon cancer cell lines; test: NCI in vitro cytotoxicity, whole panel; conditions: Homo sapiens
[39] = system: CNS cancer cell lines; test: NCI in vitro cytotoxicity, whole panel; conditions: Homo sapiens
[40] = system: Prostate cancer cell lines; test: NCI in vitro cytotoxicity, whole panel; conditions: Homo sapiens

## COc1ccc(C(=O)/C=C/c2c(C(F)(F)F)nc3sccn23)cc1OC [Compound 8f, (E)-1-(3,4-dimethoxyphenyl)-3-(6-(trifluoromethyl)imidazo[2,1-b]thiazol-5-yl) prop-2-en-1-one]
[1]
  GI50: 4.65 µM
[2]
  GI50: 4.43 µM
[3]
  GI50: 6.95 µM
[4]
  GI50: 2.91 µM
[5]
  GI50: 4.56 µM
[6]; HCT-116, HCT116, Table 4, read-out: Comparative efficacy
  IC50: 1.4 µM
[6]; HCT-116, Colon, 48 h exposure
  GI50: 1.4 µM
[7]
  GI50: 2.54 µM
[8]
  GI50: 2.01 µM
[9]
  GI50: 1.97 µM
[10]
  GI50: 1.49 µM
[11]
  GI50: 3.44 µM
[12]
  GI50: 3.14 µM
[13]
  GI50: 1.87 µM
[14]
  GI50: 3.15 µM
[15]
  GI50: 2.12 µM
[16]
  GI50: 4.08 µM
[17]
  GI50: 4.18 µM
[18]
  GI50: 1.88 µM
[19]
  GI50: 5.67 µM
[20]
  GI50: 5.1 µM
[21]
  GI50: 2.46 µM
[22]
  GI50: 2.51 µM
[23]
  GI50: 2.98 µM
[24]
  GI50: 8.76 µM
[25]
  GI50: 8.47 µM
[26]
  GI50: 5.39 µM
[27]
  GI50: 1.64 µM
[28]
  GI50: 2.51 µM
[29]
  GI50: 6.18 µM
[30]
  GI50: 0.6 µM
[31]
  GI50: 5.92 µM
[32]
  GI50: 2.67 µM
[33]
  GI50: 1.85 µM
[34]
  GI50: 8.48 µM
[35]
  GI50: 4.2 µM
[36]
  GI50: 4.85 µM
[37]
  GI50: 7.77 µM
[38]; Colon, average of six to eight cell lines, read-out: Log10 GI50 (converted)
  GI50: 2.45 µM
[38]; Colon, average of six to eight cell lines, read-out: Log10 LC50 (converted)
  CC50: ≥ 100 µM
[38]; exposure period of at least 48 hrs, read-out: GI50, range over colon cell lines
  GI50: 1.4 to 4.56 µM
[39]; CNS cell, exposure period of at least 48 hrs, read-out: GI50, range over CNS cell lines
  GI50: 1.87 to 6.87 µM
[39]; CNS, average of six to eight cell lines, read-out: Log10 GI50 (converted)
  GI50: 3.39 µM
[39]; CNS, average of six to eight cell lines, read-out: Log10 LC50 (converted)
  CC50: ≥ 100 µM
[40]; Prostate cell, exposure period of at least 48 hrs, read-out: GI50, range over prostate cell lines
  GI50: 1.64 to 5.39 µM
[40]; Prostate, average of the panel's cell lines, read-out: Log10 GI50 (converted)
  GI50: 2.95 µM
[40]; Prostate, average of the panel's cell lines, read-out: Log10 LC50 (converted)
  LC50: ≥ 100 µM

Reference: US8916711B2, “Imidazothiazole-chalcone derivatives as potential anticancer agents and process for the preparation thereof” (Council of Scientific and Industrial Research, priority 2009, dated 2014)
